Values quoted from earlier work, collected in publication PMC6738096 (British Journal of Cancer, 2019).

How the values were obtained:
[1] = cited from earlier work
ALK-positive NSCLC = system: ALK-positive NSCLC; parameters: method as in not given; settings: ALK pre-treated setting, post crizotinib; ref not given; cited from earlier work

COc1cc(N2CCC(N3CCN(C)CC3)CC2)ccc1Nc1ncc(Cl)c(Nc2ccccc2P(C)(C)=O)n1 [brigatinib]
QTc prolongation in clinical trials [1]: QTc was not prolonged to any clinically relevant extent
Objective response rate (ALK-positive NSCLC): 45–54%

Cc1cc(Nc2ncc(Cl)c(Nc3ccccc3S(=O)(=O)C(C)C)n2)c(OC(C)C)cc1C1CCNCC1 [ceritinib]
Patients with QTc > 500 ms ([1]; among 919 patients): 1.3%
Patients with ΔQTc of > 60 ms ([1]; among 919 patients): 6%
Objective response rate (ALK-positive NSCLC): 55%

C[C@H]1Oc2cc(cnc2N)-c2c(nn(C)c2C#N)CN(C)C(=O)c2ccc(F)cc21 [lorlatinib]
Objective response rate (ALK-positive NSCLC): 48%
